The nature of series [1]: Radio-HPLC metabolite analysis of mouse brain homogenate and plasma after IV radiotracer. The format is in vivo, male C57 black 6 mice. As to the method: In this preclinical study, two radiolabeling positions were investigated, [^11C-N-CH3]UCB2713 and [^11C]carbonyl UCB2713 ([^11C-CO]UCB2713). The radiolabeling of [^11C-N-CH3]UCB2713 was performed by N-methylation of the corresponding desmethyl precursor with [^11C]methyl iodide and radiolabeling of [^11C-CO]UCB2713 was performed by [^11C]aminocarbonylation of the iodo precursor and the amino precursor with [^11C]carbon monoxide in the presence of Pd(π-cinnamyl) chloride dimer and Xantphos (4,5-bis(diphenylphosphino)-9,9-dimethylxanthene) (Fig. 1b). For additional information on the precursor molecules and radiolabeling methods, see the electronic supplement. A high-performance liquid chromatography (HPLC) metabolite analysis method was developed to quantify the ratio of [^11C-N-CH3]UCB2713 and other unidentified metabolites in plasma and brain homogenate samples. Relative quantification was used to provide the ratio of parent to metabolite in these samples.
Preclinical experiments were conducted on male C57 black 6 mice (N = 10). In vivo experiments were performed on 3 mice and included a PET scan of the brain; ex vivo experiments were performed on all 10 mice and included samples of brain homogenate.
[11C]UCB2713 in vivo/ex vivo Evaluation
Administration of Radioligand and Collecting Samples
Each mouse received an intravenous (IV) bolus injection of [11C]UCB2713 via the jugular vein. The mean (standard deviation [SD]) mass of each radiotracer dose was 1.54 (± 1.03) µg; with a radioactive dose of 17.26 (± 10.88) MBq. At pre-defined time points (40, 60, and 90 min) post-administration of [11C]UCB2713, each mouse was euthanized by exsanguination, followed by cervical dislocation, with blood samples collected in heparin tubes and the brain dissected.
Brain Sample Processing and Preparation of Sample for Analysis
A sample of brain homogenate (1:1, brain:water) was assessed for radioactivity using a γ-counter. Brain homogenate was extracted with a ratio of 1:2 (homogenate:acetonitrile); a ratio of 1:1 was used for the first two animals. The mixture was vortexed for 3 min followed by centrifugation (12000 x g) for 5 min at room temperature. The extraction efficiency was […]
Brain extraction efficiency = counts per minute (CPM) in supernatant (brain extract)/CPM in brain homogenate extracted
To identify the parent-retention time based on the ultraviolet (UV) chromatogram, 20 µL of a solution containing UCB2713 was added to the supernatant (350 µL), followed by 350 µL of 50 mM ammonium formate (adjusted to pH 8), then 0.5 mL of the resulting solution was injected onto the high-performance liquid chromatography (HPLC) column.
Two aliquots of this solution were counted to determine the HPLC recovery as follows:
Recovery efficiency % = = i=1 ∙100 […]
Where “CPM(aliq.)” is the radioactivity measured for the HPLC brain homogenate samples aliquot, “Valiq.” Is the volume of each aliquot , “CPM fi” is the count per minute for fraction “i” and ∑ 30 is the sum of 30 fractions.
Mouse blood samples were centrifuged at 7500 x g for 3 min at 4 °C and plasma was extracted with a ratio of 1:1 (plasma:acetonitrile). The plasma extraction efficiency was […]
Plasma extraction efficiency = CPM in supernatant (plasma extract)/CPM in plasma […]
Samples were prepared as described above for the brain, and two aliquots of solution were counted to determine the HPLC column recovery.
HPLC Procedure and Data Analysis
The HPLC system used a pump, degasser, UV-Vis/Diode Array Detector, and fraction collector. HPLC conditions used were 55% acetonitrile and 45% 100 mM ammonium formate (Method 1), or 48% acetonitrile and 52% 100 mM ammonium formate (adjusted to pH 8; Method 2) as the mobile phase at 5 mL/min and an Agilent XDB-C18 semi-preparative […]
column (5 micron, 250 x 9.4 mm; Method 2); 30 sample fractions (Method 1) and 36 sample fractions (Method 2) were collected over either a 10- or 12-min run.
A radio-chromatogram was reconstructed from the HPLC fractions collected and the […]

The nature of series [2]: Safety and tolerability in TM0017 (TEAEs, ECG, vital signs). The note with it: TM0017, N = 4, IV radiotracer (≤ 10 µg).
Procedure: Other safety variables recorded include changes in 12-lead electrocardiogram (ECG) assessment and changes in vital signs (heart rate, systolic blood pressure, diastolic blood pressure, respiratory rate, and body temperature). Vital signs were measured in supine position following 5 min of rest and clinically significant abnormalities (according to the investigator) were recorded as an AE. All ECG recordings were performed following 5 min of rest in the supine position, in triplicate, with ≥ 1 min between each recording. If any clinically significant abnormalities occurred, an ECG data specialist was to review the recordings.
Series [3] in a line: Phase 1 PET-CT brain biodistribution study TM0017 (VT, K1, k2). It is filed as in vivo, human. As to the method:
A sample size of 2–10 participants was considered sufficient to meet the objectives, whilst limiting radiation exposure.
The preparation of radiopharmaceuticals and execution of PET-CT scans was performed by radiochemists, physicians, and technologists of Invicro (London, UK). Following local anesthesia, a catheter was inserted into the radial artery by an experienced physician; two venous catheters were also inserted. […] Upon administration, dynamic scanning started immediately and continued for 90 min.
(§1) Arterial input function data were acquired and processed for all PET scans.
Anatomical regions of interest (ROI) were defined via nonlinear deformation of a template MR image and associated neuroanatomical atlas, to match individual participants’ MR images. These ROI included, but were not limited to: parietal lobe, occipital lobe, frontal lobe, temporal lobe, striatum, cerebellum, thalamus, and the brain stem. Participants’ PET images were registered to their MR images, enabling the individualized ROI to be applied to the dynamic emission data to generate regional time activity curves (TACs). For additional information on the generation of regional TACs, see the electronic supplement.
Phase 1 PET Study in Healthy Male Participants (TM0017)
The TAC and total plasma data were fitted to a single compartment model to determine the influx and efflux constants K1 and k2. Because the plasma free fraction estimate is imprecise, we elected to fit the model using the total (free and bound) arterial concentration input function. The parameters of this model are related to the analogous parameters which would be estimated using an accurate estimate of the free arterial concentration using the equations below. We were able therefore to determine and present the K1 and estimated whole brain total distribution volume (VT), with relatively good repeatability between patients, and the equations below could also be used to relate the overall mean estimates back to the ideal total brain to free plasma minzasolmin (V’T) and unidirectional extraction Eu which can be calculated using the free fraction. The blood volume in the model was fixed at 5%. In this model, radiotracer which is free in tissue, non-specifically bound and specifically bound (i.e. to a target of interest) are lumped together in a single compartment, and so interchange between those states is assumed to be rapid.
The arterial input function used represents the total concentration of parent radiotracer in plasma, with no correction for plasma protein binding and the fitted and observed K1 from this model is lower than the rate of uptake from the free plasma concentration (K’1):
To calculate the Eu from the observed K1 from the model we then need to combine […]
The partition coefficient between total brain and total plasma concentration was determined from the fitted K1 and k2 parameters: […]
and the ratio of total concentration in brain to free concentration in plasma ( V’T) could be […]
Supplemental Fig. 1. Example of HPLC chromatograms (radioactive trace, top; UV trace, bottom) obtained during HPLC analysis of [11C-N-CH3]UCB2713 dose. The time delay

Series [4] in a line: Arterial plasma radio-metabolite analysis during PET scans (TM0017). It is filed as in vivo, human.
Excerpt: as §1

[5] abbreviates: Cerebellum, Scan 2 (after oral minzasolmin 360 mg).
The mark [6] stands for this setting: Cerebral white matter, Scan 1 (baseline).
Setting [7] is: Cerebral white matter, Scan 2 (after oral minzasolmin 360 mg).
Where [8] appears, read: Frontal lobe, Scan 1 (baseline).
The mark [9] stands for this setting: Frontal lobe, Scan 2 (after oral minzasolmin 360 mg).
Setting [10] is: Gray matter, Scan 2 (after oral minzasolmin 360 mg).
Where [11] appears, read: Occipital lobe, Scan 1 (baseline).
[12] abbreviates: Occipital lobe, Scan 2 (after oral minzasolmin 360 mg).
Setting [13] is: Parietal lobe, Scan 1 (baseline).
Where [14] appears, read: Parietal lobe, Scan 2 (after oral minzasolmin 360 mg).
Setting [15] is: Striatum, Scan 2 (after oral minzasolmin 360 mg).
Where [16] appears, read: Temporal lobe, Scan 1 (baseline).
Setting [17] is: Temporal lobe, Scan 2 (after oral minzasolmin 360 mg).
[18] abbreviates: mixed effects model, after oral minzasolmin 360 mg.

Structures are written as SMILES. Some results are limits rather than exact numbers.

`CCCC[C@@H](Cc1c[nH]c2ccccc12)N[11C](=O)c1cnc(N2CCN(C)CC2)s1` [[^11C-CO]UCB2713]: the “parent fraction in brain tissue” value in series [1] (in-vivo metabolism studies in mice) is more than 95%. In series [1] (radio-HPLC column eluent front ~1.5-2 min), the “polar metabolites in mouse brain” value is on record as “no polar metabolite present in the mouse brain”.
Turning to `CCCC[C@H](Cc1c[nH]c2ccccc12)NC(=O)c1cnc(N2CCN([11CH3])CC2)s1` [[^11C]minzasolmin], the “Any TEAEs” value in series [2] was 3 (75) n (%). The Deaths in series [2] was 0 n (%). Also, the “Discontinuations due to TEAEs” value in series [2] is on record as 0 n (%). Moreover, the “Drug-related TEAEs” value in series [2] is reported as 0 n (%). Moreover, the “Serious TEAEs” value in series [2] is reported as 0 n (%). In series [2], the “Severe TEAEs” value was 0 n (%). Moreover, the “TEAEs of special interest” value in series [2] is 0 n (%). Besides, the K1 in series [3] (Cerebellum, Scan 1 (baseline)) was determined as 0.02 mL/cm^3/min; in series [3] (setting [5]) it was 0.018 mL/cm^3/min; in series [3] (setting [6]), 0.008 mL/cm^3/min; in series [3] (setting [7]), 0.007 mL/cm^3/min; in series [3] (setting [8]), 0.017 mL/cm^3/min; in series [3] (setting [9]) it was 0.014 mL/cm^3/min. Further, the K1 in series [3] (Gray matter, Scan 1 (baseline)) was determined as 0.017 mL/cm^3/min; in series [3] (setting [10]) it was 0.015 mL/cm^3/min; in series [3] (setting [11]), 0.019 mL/cm^3/min; in series [3] (setting [12]), 0.017 mL/cm^3/min; in series [3] (setting [13]) it was 0.017 mL/cm^3/min; in series [3] (setting [14]), 0.015 mL/cm^3/min. Besides, the K1 in series [3] (Striatum, Scan 1 (baseline)) was found to be 0.015 mL/cm^3/min; in series [3] (setting [15]) it was 0.013 mL/cm^3/min; in series [3] (setting [16]), 0.017 mL/cm^3/min; in series [3] (setting [17]), 0.015 mL/cm^3/min. For the same compound, the VT was determined as 0.522 mL/cm^3 in series [3] (Cerebellum, Scan 1 (baseline)); 0.499 mL/cm^3 in series [3] (setting [5]); 0.469 mL/cm^3 in series [3] (setting [6]); 0.523 mL/cm^3 in series [3] (setting [7]); 0.539 mL/cm^3 in series [3] (setting [8]); 0.539 mL/cm^3 in series [3] (setting [9]). Further, the VT in series [3] (Gray matter, Scan 1 (baseline)) was 0.547 mL/cm^3; in series [3] (setting [10]), 0.542 mL/cm^3; in series [3] (setting [11]), 0.548 mL/cm^3; in series [3] (setting [12]), 0.555 mL/cm^3; in series [3] (setting [13]), 0.551 mL/cm^3; in series [3] (setting [14]), 0.574 mL/cm^3. The VT came out at 0.545 mL/cm^3 in series [3] (Striatum, Scan 1 (baseline)); 0.528 mL/cm^3 in series [3] (setting [15]); 0.566 mL/cm^3 in series [3] (setting [16]); 0.557 mL/cm^3 in series [3] (setting [17]). The “VT before and after dosing with minzasolmin 360 mg” value in series [3] (Scan 1 vs Scan 2) is listed as “no difference in VT”. For the same compound, the “overall mean brain influx rate (K1)” value in series [3] (across each participant and all ROI, from total plasma concentrations) was 0.015 mL/cm^3/min. In addition, the “qualitative assessment of the PET images” value in series [3] (following radiotracer injections) is listed as “distributed throughout the brain”. The “mean difference in VT between Scan 1 and Scan 2” value in series [3] (least squares mean of mixed model over all regions and participants) is on record as -0.008 mL/cm^3. Also, the “change in K1 after oral dosing” value in series [3] (setting [18]) was -15.9%. The “change in k2 after oral dosing” value in series [3] (setting [18]) is -9.3%. The “radioactivity in plasma attributable to intact parent radiotracer” value in series [4] (human arterial plasma, at 90 min) is ~ 50%. The “total parent fraction during the radiotracer brain uptake phase” value in series [4] (human plasma, up to 30 min) is recorded as more than 70%.
Take `CCCC[C@@H](Cc1c[nH]c2ccccc12)N[11C](=O)c1cnc(N2CCNCC2)s1` [desmethyl-[^11C-CO]UCB2713]: the “amount of desmethyl metabolite observed in mouse brain” value in series [1] (radio-HPLC of brain homogenate after [11C-CO]UCB2713) was ~ 2%.

Values taken from PMC10973027 (Molecular Imaging and Biology, 2023).
